Data published in ChEMBL document CHEMBL1148562, “Synthesis and biological evaluation of novel pyrrolo[2,1-c][1,4]benzodiazepine prodrugs for use in antibody-directed enzyme prodrug therapy” (Bioorg Med Chem Lett, 2006).

Columns and labels:
LS174T [1] = experiment: Cytotoxicity against LS174T human colon cell line after 1 hour of exposure; assay type: functional, cell-based
[2] = Conversion of prodrug to parent in distilled water at room temperature for 24 hrs; assay type: ADME; conditions: buffer
LS174T [3] = experiment: Cytotoxicity against LS174T human colon cell line after continuous exposure; assay type: functional, cell-based
[4] = Conversion of prodrug to parent in distilled water at 37 degC for 24 hrs; assay type: ADME; conditions: buffer

Compound | IC50 (LS174T [1]) [nM] | Stability [2] | IC50 (LS174T [3]) [nM] | Activity [4] | Activity [2]
COc1cc2c(cc1OCCCOc1cc3c(cc1OC)C(=O)N1CCC[C@H]1[C@H](O)N3C(=O)OCc1ccc(OC(=O)N[C@@H](CCC(=O)O)C(=O)O)cc1)N(C(=O)OCc1ccc(OC(=O)N[C@@H](CCC(=O)O)C(=O)O)cc1)[C@@H](O)[C@@H]1CCCN1C2=O | 200 | Stable | 21 | 3% | 
COc1cc2c(cc1OC)C(=O)N1CCC[C@H]1C=N2 | 14000 |  | 1400 |  | 
COc1cc2c(cc1OC)N(C(=O)OCc1ccc(OC(=O)N[C@@H](CCC(=O)O)C(=O)O)cc1)[C@@H](O)[C@@H]1CCCN1C2=O | > 100000 | Stable | 20000 | 7% | 
COc1cc2c(cc1OC)N(C(=O)OCc1ccc(NC(=O)N[C@@H](CCC(=O)O)C(=O)O)cc1)[C@@H](O)[C@@H]1CCCN1C2=O | 28000 |  | 1600 | Active | Active
COc1cc2c(cc1OCCCOc1cc3c(cc1OC)C(=O)N1CCC[C@H]1C=N3)N=C[C@@H]1CCCN1C2=O [DSB-120] | 13 |  | 0.47 |  | 
COc1cc2c(cc1OCCCOc1cc3c(cc1OC)C(=O)N1CCC[C@H]1[C@H](O)N3C(=O)OCc1ccc(NC(=O)N[C@@H](CCC(=O)O)C(=O)O)cc1)N(C(=O)OCc1ccc(NC(=O)N[C@@H](CCC(=O)O)C(=O)O)cc1)[C@@H](O)[C@@H]1CCCN1C2=O | 6 |  | 0.8 | Active | Active
